Assay results: patent US10160762B2, “6-alkyl dihydropyrazolopyrimidinone compounds as PDE2 inhibitors” (Merck Sharp & Dohme Corp., priority 2015, dated 2018)

Target: T1, human PDE2A1 (Homo sapiens, UniProt O00408)
T1 construct: GST; purchased BPS Bioscience (San Diego, Calif.) 60020; host or cells: insect cells
Assay: IMAP FP PDE assay, human PDE2A1
Format: biochemical
Settings: Lab A; read-out: Human PDE2 Ki (nM) Lab A
In short: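 FP (IMAP) read after 60 min room-temperature reaction of insect-cell GST-human PDE2A1 with 50 nM FAM-cAMP plus 1000 nM cGMP (pH 7.2 Tris, Mg2+, DTT). Compounds titrated 3-fold over ten points. Apparent Ki derived assuming KM of 10,000 nM; enzyme at 20% substrate turnover.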

T1 sequence (O00408 1-920 isoform O00408-2): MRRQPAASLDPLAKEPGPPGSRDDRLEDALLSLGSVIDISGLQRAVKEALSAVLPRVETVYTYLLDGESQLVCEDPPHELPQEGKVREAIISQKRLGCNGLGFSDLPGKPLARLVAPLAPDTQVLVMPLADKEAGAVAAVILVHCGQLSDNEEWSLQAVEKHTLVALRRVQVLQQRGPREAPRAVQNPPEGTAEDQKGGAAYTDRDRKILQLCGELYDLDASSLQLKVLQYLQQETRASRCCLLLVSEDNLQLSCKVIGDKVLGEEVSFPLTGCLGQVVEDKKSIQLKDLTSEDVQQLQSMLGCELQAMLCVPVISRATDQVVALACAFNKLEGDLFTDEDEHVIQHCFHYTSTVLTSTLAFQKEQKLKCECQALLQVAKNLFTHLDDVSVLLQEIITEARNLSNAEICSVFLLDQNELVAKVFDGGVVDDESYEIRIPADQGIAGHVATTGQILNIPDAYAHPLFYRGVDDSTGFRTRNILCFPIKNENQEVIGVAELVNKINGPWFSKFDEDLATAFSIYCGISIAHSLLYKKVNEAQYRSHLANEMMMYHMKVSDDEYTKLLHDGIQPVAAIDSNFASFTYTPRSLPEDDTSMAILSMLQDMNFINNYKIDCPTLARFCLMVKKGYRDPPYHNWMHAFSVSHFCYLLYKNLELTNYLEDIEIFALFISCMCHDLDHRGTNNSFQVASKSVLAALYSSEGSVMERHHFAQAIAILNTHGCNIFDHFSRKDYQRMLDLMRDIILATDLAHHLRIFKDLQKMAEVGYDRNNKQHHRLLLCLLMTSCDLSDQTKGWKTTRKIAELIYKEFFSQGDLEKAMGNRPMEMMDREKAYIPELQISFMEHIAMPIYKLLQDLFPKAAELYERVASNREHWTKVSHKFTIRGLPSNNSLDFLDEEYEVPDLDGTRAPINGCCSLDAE

Row | SMILES | Ki [nM]
1 | Cc1nc2c(c(CO)nn2C(C)c2ccc(C(F)(F)F)cc2)c(=O)[nH]1 (single isomer, unassigned) [Example 26, (R)- or (S)-3-(Hydroxymethyl)-6-methyl-1-{1-[4-(trifluoromethyl)phenyl]ethyl}-1,5-dihydro-4H-pyrazolo[3,4-d]pyrimidin-4-one] | 130
2 | Cc1nc2c(c(CO)nn2C(C)c2ccc(C(F)(F)F)cc2)c(=O)[nH]1 (single isomer, unassigned) [Example 27, (S)- or (R)-3-(Hydroxymethyl)-6-methyl-1-{1-[4-(trifluoromethyl)phenyl]ethyl]-1,5-dihydro-4H-pyrazolo[3,4-d]pyrimidin-4-one] | 1.4
3 | Cc1nc2c(c(C)nn2C(C)c2ccc(C(F)(F)F)cc2)c(=O)[nH]1 (single isomer, unassigned) [Example 36] | 428
4 | Cc1nc2c(c(C)nn2C(C)c2ccc(C(F)(F)F)cc2)c(=O)[nH]1 (single isomer, unassigned) [Example 37] | 23
5 | COc1ccc(Cc2nc3c(c(CF)nn3C(C)c3ccc(C(F)(F)F)cc3)c(=O)[nH]2)cc1OC (single isomer, unassigned) [Example 222, (R)- or (S)-6-(3,4-Dimethoxybenzyl)-3-(fluoromethyl)-1-(1-(4-(trifluoromethyl)phenyl)ethyl)-1,5-dihydro-4H-pyrazolo[3,4-d]pyrimidin-4-one] | < 5.1
6 | COc1ccc(Cc2nc3c(c(CF)nn3C(C)c3ccc(C(F)(F)F)cc3)c(=O)[nH]2)cc1OC (single isomer, unassigned) [Example 223, (S)- or (R)-6-(3,4-Dimethoxybenzyl)-3-(fluoromethyl)-1-(1-(4-(trifluoromethyl)phenyl)ethyl)-1,5-dihydro-4H-pyrazolo[3,4-d]pyrimidin-4-one] | 12

Same assay, conditions: Lab B; read-out: Human PDE2 Ki (nM) Lab B

Row | SMILES | Ki [nM]
7 | Cc1nc2c(c(CO)nn2C(C)c2ccc(OC(F)(F)F)c(F)c2)c(=O)[nH]1 (single isomer, unassigned) [Example 10, (R)- or (S)-1-(1-(3-Fluoro-4-(trifluoromethoxy)phenyl)ethyl)-3-(hydroxymethyl)-6-methyl-1H-pyrazolo[3,4-d]pyrimidin-4(5H)-one] | 50
8 | Cc1nc2c(c(CO)nn2C(C)c2ccc(OC(F)(F)F)c(F)c2)c(=O)[nH]1 (single isomer, unassigned) [Example 11, (S)- or (R)-1-(1-(3-Fluoro-4-(trifluoromethoxy)phenyl)ethyl)-3-(hydroxymethyl)-6-methyl-1H-pyrazolo[3,4-d]pyrimidin-4(5H)-one] | 1.9
9 | Cc1nc2c(c(CO)nn2C(C)c2ccc(C(F)(F)F)c(F)c2)c(=O)[nH]1 (single isomer, unassigned) [Example 12, (R)- or (S)-1-(1-(3-Fluoro-4-(trifluoromethyl)phenyl)ethyl)-3-(hydroxymethyl)-6-methyl-1H-pyrazolo[3,4-d]pyrimidin-4(5H)-one] | 205
10 | Cc1nc2c(c(CO)nn2C(C)c2ccc(C(F)(F)F)c(F)c2)c(=O)[nH]1 (single isomer, unassigned) [Example 13, (S)- or (R)-1-(1-(3-Fluoro-4-(trifluoromethyl)phenyl)ethyl)-3-(hydroxymethyl)-6-methyl-1H-pyrazolo[3,4-d]pyrimidin-4(5H)-one] | 1.7
11 | Cc1nc2c(c(CO)nn2C(C)c2ccc(C(F)(F)F)cc2)c(=O)[nH]1 (single isomer, unassigned) [Example 26, (R)- or (S)-3-(Hydroxymethyl)-6-methyl-1-{1-[4-(trifluoromethyl)phenyl]ethyl}-1,5-dihydro-4H-pyrazolo[3,4-d]pyrimidin-4-one] | 236
12 | Cc1nc2c(c(CO)nn2C(C)c2ccc(C(F)(F)F)cc2)c(=O)[nH]1 (single isomer, unassigned) [Example 27, (S)- or (R)-3-(Hydroxymethyl)-6-methyl-1-{1-[4-(trifluoromethyl)phenyl]ethyl]-1,5-dihydro-4H-pyrazolo[3,4-d]pyrimidin-4-one] | 3.4
13 | Cc1nc2c(c(CO)nn2C(c2ccc(OC(F)(F)F)cc2)C2CC2)c(=O)[nH]1 (single isomer, unassigned) [Example 94, (R)- or (S)-1-(Cyclopropyl(4-(trifluoromethoxy)phenyl)methyl)-3-(hydroxymethyl)-6-methyl-1H-pyrazolo[3,4-d]pyrimidin-4(5H)-one] | 18
14 | Cc1nc2c(c(CO)nn2C(c2ccc(OC(F)(F)F)cc2)C2CC2)c(=O)[nH]1 (single isomer, unassigned) [Example 95, (S)- or (R)-1-(Cyclopropyl(4-(trifluoromethoxy)phenyl)methyl)-3-(hydroxymethyl)-6-methyl-1H-pyrazolo[3,4-d]pyrimidin-4(5H)-one] | 2
15 | Cc1nc2c(c(CO)nn2C(c2ccc(OC(F)(F)F)c(F)c2)C(C)C)c(=O)[nH]1 (single isomer, unassigned) [Example 126, (R)- or (S)-1-(1-(3-Fluoro-4-(trifluoromethoxy)phenyl)-2-methylpropyl)-3-(hydroxyl-methyl)-6-methyl-1H-pyrazolo-[3,4-d]pyrimidin-4(5H)-one] | 5.7
16 | Cc1nc2c(c(CO)nn2C(c2ccc(OC(F)(F)F)c(F)c2)C(C)C)c(=O)[nH]1 (single isomer, unassigned) [Example 127, (S)- or (R)-1-(1-(3-Fluoro-4-(trifluoromethoxy)phenyl)-2-methylpropyl)-3-(hydroxymethyl)-6-methyl-1H-pyrazolo[3,4-d]pyrimidin-4(5H)-one] | 0.98
17 | Cc1nc2c(c(CO)nn2C(c2ccc(C(F)(F)F)c(F)c2)C(C)(C)C)c(=O)[nH]1 (single isomer, unassigned) [Example 129, (S)- or (R)-1-(1-(3-Fluoro-4-(trifluoromethyl)phenyl)-2,2-dimethylpropyl)-3-(hydroxyl-methyl)-6-methyl-1H-pyrazolo-[3,4-d]pyrimidin-4(5H)-one] | 8.9
18 | CCC(c1ccc(C(F)(F)F)cc1)n1nc(CO)c2c(=O)[nH]c(C)nc21 (single isomer, unassigned) [Example 132, (R)- or (S)-3-(Hydroxymethyl)-6-methyl-1-(1-(4-(trifluoro-methyl)phenyl)propyl)-1H-pyrazolo[3,4-d]pyrimidin-4(5H)-one] | 1.1
19 | Cc1nc2c(c(C(F)F)nn2C(C)c2ccc(C(F)(F)F)cc2)c(=O)[nH]1 (single isomer, unassigned) [Example 176] | 1.3
20 | Cc1nc2c(c(C(F)F)nn2C(C)c2ccc(OC(F)F)cc2)c(=O)[nH]1 (single isomer, unassigned) [Example 182, (S)- or (R)-1-(1-(4-(Difluoromethoxy)phenyl)ethyl)-3-(difluoromethyl)-6-methyl-1H-pyrazolo[3,4-d]pyrimidin-4(5H)-one] | 0.84
21 | COc1ccc(Cc2nc3c(c(C(F)F)nn3C(C)c3ccc(C(F)(F)F)cc3)c(=O)[nH]2)cc1OC (single isomer, unassigned) [Example 196] | 61
22 | COc1ccc(Cc2nc3c(c(C(F)F)nn3C(C)c3ccc(C(F)(F)F)cc3)c(=O)[nH]2)cc1OC (single isomer, unassigned) [Example 197] | 0.23
23 | Cc1nc2c(c(CF)nn2C(C)c2ccc(S(F)(F)(F)(F)F)cc2)c(=O)[nH]1 (single isomer, unassigned) [Example 200] | 2
24 | Cc1nc2c(c(CF)nn2C(C)c2ccc(OC(F)(F)F)cc2)c(=O)[nH]1 (single isomer, unassigned) [Example 206, (R)- or (S)-3-(Fluoromethyl)-6-methyl-1-(1-(4-(trifluoro-methoxy-)phenyl)ethyl)-1H-pyrazolo[3,4-d]pyrimidin-4(5H)-one] | 83
25 | Cc1nc2c(c(CF)nn2C(C)c2ccc(OC(F)(F)F)cc2)c(=O)[nH]1 (single isomer, unassigned) [Example 207, (S)- or (R)-3-(Fluoromethyl)-6-methyl-1-(1-(4-(trifluoromethoxy)phenyl)ethyl)-1H-pyrazolo[3,4-d]pyrimidin-4(5H)-one] | 1.1
26 | Cc1nc2c(c(CF)nn2C(c2ccc(C(F)(F)F)cc2)C2(C)CC2)c(=O)[nH]1 (single isomer, unassigned) [Example 209] | 0.99
27 | Cc1nc2c(c(CF)nn2C(C)c2ccc(CC(F)(F)F)cc2)c(=O)[nH]1 (single isomer, unassigned) [Example 211, (S)- or (R)-3-(Fluoromethyl)-6-methyl-1-(1-(4-(2,2,2-trifluoroethyl)phenyl)ethyl)-1H-pyrazolo[3,4-d]pyrimidin-4(5H)-one] | 0.65
28 | Cc1nc2c(c(CF)nn2C(c2ccc(C(F)(F)F)cc2)C(C)C)c(=O)[nH]1 (single isomer, unassigned) [Example 212, (R)- or (S)-3-(Fluoromethyl)-6-methyl-1-(2-methyl-1-(4-(trifluoromethyl)phenyl)propyl)-1H-pyrazolo[3,4-d]pyrimidin-4(5H)-one] | 43
29 | Cc1nc2c(c(CF)nn2C(c2ccc(C(F)(F)F)cc2)C(C)C)c(=O)[nH]1 (single isomer, unassigned) [Example 213, (S)- or (R)-3-(Fluoromethyl)-6-methyl-1-(2-methyl-1-(4-(trifluoromethyl)phenyl)propyl)-1H-pyrazolo[3,4-d]pyrimidin-4(5H)-one] | 0.19
30 | Cc1nc2c(c(CF)nn2C(C)c2ccc(C(C)(C)C)cc2)c(=O)[nH]1 (single isomer, unassigned) [Example 214, (R)- or (S)-1-(1-(4-tert-Butylphenyl)ethyl)-3-(fluoromethyl)-6-methyl-1H-pyrazolo[3,4-d]pyrimidin-4(5H)-one] | 307
31 | Cc1nc2c(c(CF)nn2C(C)c2ccc(C(C)(C)C)cc2)c(=O)[nH]1 (single isomer, unassigned) [Example 215, (S)- or (R)-1-(1-(4-tert-Butylphenyl)ethyl)-3-(fluoromethyl)-6-methyl-1H-pyrazolo[3,4-d]pyrimidin-4(5H)-one] | 0.48
32 | Cc1nc2c(c(CF)nn2C(C)c2ccc(OC(F)(F)F)c(F)c2)c(=O)[nH]1 (single isomer, unassigned) [Example 216, (R)- or (S)-1-(1-(3-Fluoro-4-(trifluoromethoxy)phenyl)ethyl)-3-(fluoromethyl)-6-methyl-1H-pyrazolo[3,4-d]pyrimidin-4(5H)-one] | 36
33 | Cc1nc2c(c(CF)nn2C(C)c2ccc(OC(F)(F)F)c(F)c2)c(=O)[nH]1 (single isomer, unassigned) [Example 217, (S)- or (R)-1-(1-(3-Fluoro-4-(trifluoromethoxy)phenyl)ethyl)-3-(fluoromethyl)-6-methyl-1H-pyrazolo[3,4-d]pyrimidin-4(5H)-one] | 0.7
34 | COc1ccc(Cc2nc3c(c(CF)nn3C(C)c3ccc(C(F)(F)F)cc3)c(=O)[nH]2)cc1OC (single isomer, unassigned) [Example 222, (R)- or (S)-6-(3,4-Dimethoxybenzyl)-3-(fluoromethyl)-1-(1-(4-(trifluoromethyl)phenyl)ethyl)-1,5-dihydro-4H-pyrazolo[3,4-d]pyrimidin-4-one] | 0.34
